Consider 6 compounds from PMC6544338, “Comparative biophysical characterization: A screening tool for acetylcholinesterase inhibitors” (PLoS ONE, 2019).

Like-named read-outs stand apart in the source and are kept apart here.

Assay [1] relates to AChE. Particulars: cited from earlier work.
The subject of assay [2] is AChE activity of the central nervous tissue of L.acuminata. The conditions noted are these: 0.04 mM tannic acid; cited from earlier work.
Assay [3] concerns the target T1, immobilized AChE (Electrophorus electricus, UniProt O42275).
T1 construct: purchased Sigma (St. Louis, MO, USA)
As to the kind of experiment: biochemical. The conditions noted are these: for Kd / Ka1 / Kd1: 25°C. The assay is classed as binding. Here is the method: (§1) The protocol was followed with some modifications for enzyme immobilization, scouting and screening. SPR interactions were performed using a Biacore X100 optical biosensor (GE Healthcare Life Sciences, Bangalore, India) at 25°C. SPR analysis was carried out in PBS (200 mM, pH 7.7) from the analyte stock solutions, working solutions were diluted before passing on to the sensor surface. Data collection was done with the help of Biacore control software ver 2.0.2 Sets of experiments were carried out by monitoring change in the refractive index as a function of time under constant flow conditions. The relative amount of inhibitor bound to the AChE was determined by measuring the net increase in the refractive index over time compared to buffer as a control. During each run, there is an inline subtraction of the reference surface. Change is reported regarding response units (RU). The surface was washed with 5 cycles of running buffer (PBS) before next analytes.
(§2) As per pH scouting studies, AChE enzyme (100μg) was dissolved in 100 mM sodium acetate buffer pH 4.5 and was immobilized to the CM5 sensor chip by using the amine coupling method. The flow rate was kept constant during immobilization at 10 μlmin^-1, the surface of flow cell was activated by 1:1 mixture of 100 mM EDC and 100 mM NHS (both dissolved in water) for 7 min. AChE was injected for 7 min, and residual activated carboxymethyl groups were blocked on the sensor surface by 7 min injection of 1M ethanolamine, pH 8.5. In this particular study, flow cell 1 was blank immobilized (without protein) and used as a reference. Inline and double referencing was done for the buffer RU compensation.
(§3) Here the model describes this competitive situation and returns two sets of rate constants, one for each reaction taking into consideration two different analytes. The same buffer was used as running buffer. The constant flow rate was maintained throughout the kinetics (45 μlmin^-1), contact time and dissociation time was kept at 120 second (s). 10 mM glycine pH 3.0 for the time period of 30 s was used for regeneration. The experiments were carried at different concentrations of inhibitors.
(§4) The analysis of data was carried out with X100 evaluation software ver 2.0.2 and fitted to two state fit for individual molecules and for competitive experiments a heterogeneous analyte binding model.

The target in assay [4] is T2, AChE (Electrophorus electricus, UniProt O42275).
T2 construct: purchased Sigma (St. Louis, MO, USA)
T2 sequence (O42275 24-633): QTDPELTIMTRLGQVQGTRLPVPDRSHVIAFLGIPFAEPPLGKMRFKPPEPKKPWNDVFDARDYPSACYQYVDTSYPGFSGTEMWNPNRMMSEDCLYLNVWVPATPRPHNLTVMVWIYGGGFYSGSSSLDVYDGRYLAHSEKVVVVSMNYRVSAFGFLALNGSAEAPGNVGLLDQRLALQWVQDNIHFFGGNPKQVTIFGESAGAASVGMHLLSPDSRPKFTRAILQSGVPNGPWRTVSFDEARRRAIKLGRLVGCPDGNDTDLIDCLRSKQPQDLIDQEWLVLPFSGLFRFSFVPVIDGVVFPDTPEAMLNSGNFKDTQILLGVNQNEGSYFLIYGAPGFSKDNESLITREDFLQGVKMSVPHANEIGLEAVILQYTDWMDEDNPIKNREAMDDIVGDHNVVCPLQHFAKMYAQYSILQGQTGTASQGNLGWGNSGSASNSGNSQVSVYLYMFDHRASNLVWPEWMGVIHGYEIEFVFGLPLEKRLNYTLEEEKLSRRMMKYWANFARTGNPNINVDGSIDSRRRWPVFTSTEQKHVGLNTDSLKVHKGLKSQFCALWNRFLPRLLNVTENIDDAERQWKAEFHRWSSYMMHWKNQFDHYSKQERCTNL
Description: Fluorescence spectral studies of AChE incubated with molecules. The conditions noted are these: excitation 365 nm, control emission maxima […] nm, molecules at IC50 concentration, 10 min. Here is the method:
The fluorescence intensities were recorded using 0.5 mgml^-1 protein concentration with an excitation wavelength of 365 nm and an emission wavelength of 400–700 nm with slit widths of 20 nm using MY14410002 fluorescence spectrophotometer (Agilent Technologies, USA) at 25°C. Protein solutions of 0.5 mgml^-1 were prepared in 10 mM PBS at pH 7.7. Scans were performed at room temperature using a 1 cm path length quartz cuvette with 1 s differential integration time at a scan rate of 600 nm min^-1. […] The subsequent changes in fluorescence were measured at this wavelength.
Fig 21 a) Intrinsic fluorescence spectra of the AChE incubated with molecules. […] Scans were performed at 37°C using a 1 cm path length quartz cuvette with 1 s differential integration time at a scan rate of 600 nm min^-1. The excitation wavelength was 365 nm and emission wavelength was in the range of 400–700 nm. b) Intrinsic fluorescence spectra of the AChE incubated with molecules. […] Scans were performed at 37° C using a 1 cm path length quartz cuvette with 1 s differential integration time at a scan rate of 600 nm min^-1. The excitation wavelength was 365 nm and the emission wavelength was in the range of 400–700 nm.

Assay [5] addresses T2, AChE. Description: Far-UV circular dichroism of AChE with small molecules (secondary structure composition). The conditions noted are these: single molecule; for Turns of AChE in presence of the molecule: AChE alone 0; for α helix of AChE in presence of the molecule: AChE alone 3.6±0.012; for Random of AChE in presence of the molecule: AChE alone 44.2±0.46; for β sheets of AChE in presence of the molecule: AChE alone 52.3±0.6. As to the method: Protein solutions 0.5 milligram per milliliter (mgml^-1) was prepared in 10 mM PBS at pH 7.7. Scans were performed at room temperature using 0.1 cm path length quartz cuvette with 8 s differential integration time at a scan rate of 100 nano meter per minute (nm min^-1). The CD spectrum of AChE enzyme individually and with different small molecules, also in combination was recorded. All spectra resulted from averaging three scans were corrected from the buffer blank. Results were expressed as molar ellipticity (°cm^2 dmol^-1) based on a mean amino acid residue weight (MRW) 110 Da for AChE. The molar ellipticity was determined as [θ obs] = {100 × (MRW) × θobs/cl}, where θ is the observed ellipticity in degrees at a given wavelength, c is the protein concentration in mgml^-1, and l is the path length in cm.
The relative percentages of the secondary structure elements were estimated in triplicates using Manager Suite software.
On the technique in general: CD spectra are sensitive to the conformation of chiral molecules.

Assay [6] concerns the target T1, immobilized AChE. Description: biochemical. The assay is classed as binding. As to the method: as §1, §2, §3, §4
Likewise, competitive experiments between different pairs was run by mixing 1:1 ratio of molecules and was fit to heterogeneous analyte model were studied. These experiments are helpful for determining the kinetics of a small molecule analyte in competition with other. Response contributions from both analytes are taken into account by considering molecular weight and concentrations of analytes. For competition binding experiments, pairing was done based on substrate-inhibitor and inhibitor-inhibitor interactions. […] Finally, naturally occurring crocin was also tested due to reports in the literature as a brain tonic for the Alzheimer's.

In assay [7] the target is T3, acetylcholinesterase from Electrophorus electricus (Electric eel) (Electrophorus electricus, UniProt O42275).
T3 construct: purchased Sigma (St. Louis, MO, USA)
T3 sequence (O42275 24-633): as above
As to the kind of experiment: Inhibition assay for acetylcholinesterase activity (modified Ellman, ATCI/DTNB, 412 nm). The assay is classed as biochemical. As to the method: The assay was performed with some modifications of Ellman et al (1961). […] The hydrolysis was monitored by the formation of yellow color (5-thio-2-nitrobenzoate anion) and the absorbance was measured at 412 nm by using spectrophotometer (UV-1800, Shimadzu, Japan).
The inhibitory activity assay was carried out with slight modifications. […] The inhibitory percentage of AChE was calculated as follows:
%inhibition = 100[A − B] − [C − D]/[A − B]
A is the OD without test substance, B is the OD without test substance and AChE, C is the OD with the test substance, D is the OD at 412 nm with the test substance and without AChE.
The relative percentage inhibition were estimated in triplicates and values were expressed as mean ± SEM (n = 3).
In general terms: DTNB colorimetry detects thiols as they appear.

The mark [8] stands for this setting: affinity fit, read-out: KD Affinity.
[9] abbreviates: pair tannic acid (molecule 1) and ATCI (molecule 2), 1:1.
The mark [10] stands for this setting: two-state model, read-out: KD Kinetics.
The mark [11] stands for this setting: pair crocin (molecule 1) and ATCI (molecule 2), 1:1.

T1 sequence (O42275 24-633): as above

Regarding `O=C(O[C@@H]1Cc2c(O)cc(O)cc2O[C@@H]1c1cc(O)c(O)c(O)c1)c1cc(O)c(O)c(O)c1` [epigallocatechin gallate], in assay [1] (literature value, no reference printed behind it, read-out: IC50), the IC50 (usually the concentration that inhibits the measured activity by half) was 16.8 µM.

In the case of tannic acid, the “reduced AChE activity” value in assay [2] is reported as 37%. Besides, the Ka2 in assay [3] is given as 0.1039±2.2×10^−4 1/s. Moreover, the Kd (as a rule, the concentration at which binding is half-saturated) in assay [3] (setting [8]) turned out to be 11.4 µM. In assay [3] (two-state model), the Ka1 is 1400 ± 47 M⁻¹ s⁻¹ and the Kd1 was found to be 0.03423 ± 0.017 s⁻¹. Moreover, in assay [4], the “change in fluorescence emission of AChE compared to control enzyme” value (“change in fluorescence emission of AChE” for short) is on record as “redshift”. Moreover, in assay [5], the “Turns of AChE in presence of the molecule” value (from here on “Turns of AChE”) was 14.8±0.08%, the “α helix of AChE in presence of the molecule” value (from here on “α helix of AChE”) was 5.1±0.039%, the “Random of AChE in presence of the molecule” value (“Random of AChE” below) worked out at 49.5±0.70% and the “β sheets of AChE in presence of the molecule” value (from here on “β sheets of AChE”) is reported as 30.6±0.19%. In assay [6], the “Molecule 1 ka1” value was determined as 231.1 ± 3.3 M⁻¹ s⁻¹ and the “Molecule 1 kd1” value came out at 2.685e-05 ± 2.9e-08 s⁻¹. Besides, in assay [6] (setting [9]), the “Molecule 1 ka1” value came to 1.687e-05 ± 3.7e+06 M⁻¹ s⁻¹ and the “Molecule 1 kd1” value was 0.01266 ± 0.028 s⁻¹. For the same compound, the Kd in assay [6] (pair tannic acid (molecule 1) and ATCI (molecule 2), 1:1, read-out: Molecule 1 KD) worked out at 0.0751 µM. Besides, the Kd in assay [6] (read-out: Molecule 1 KD) turned out to be 0.116 µM. The IC50 in assay [7] ([…] ATCI, PBS 200 mM pH 7.7, 37°C, mean ± SEM (n = 3), read-out: IC50) turned out to be 27 ± 2 µM.

On to `O.Oc1cc(O)c2c(c1)O[C@H](c1ccc(O)c(O)c1)[C@@H](O)C2` [catechin], for which the IC50 in assay [1] (Catechin isolated from Dasiphora fruticosa, read-out: IC50) is 1040 µM; in assay [1] (catechin isolated from Eugenia dysenterica), 42.39 µg/mL.

Consider `Oc1cccc(O)c1O` [Pyrogallol, pyrogallol], for which the IC50 in assay [1] (read-out: IC50) was 10.2 µM. Also, in assay [3], the Ka2 is listed as 0.01979±3.7×10^−4 1/s and the Kd2 is reported as 0.002793±3.2×10^−5 1/s. For the same compound, in assay [3] (setting [8]), the Kd worked out at 119 µM. In assay [3] (two-state model), this compound came in with a Ka1 of 200.1 ± 3.3 M⁻¹ s⁻¹ and a Kd1 of 0.05082 ± 0.0015 s⁻¹. Moreover, the Kd in assay [3] (setting [10]) stood at 31.4 µM. For the same compound, the “change in fluorescence emission of AChE” value in assay [4] is on record as “quenching”. Also, in assay [5], the “Turns of AChE” value was found to be 0%, the “α helix of AChE” value came out at 0%, the “Random of AChE” value was determined as 49.2±0.68% and the “β sheets of AChE” value is reported as 50.8±0.73%. In addition, the IC50 in assay [7] stood at 3800 ± 100 µM.

On to `CC(/C=C/C=C(\C)C(=O)O[C@@H]1O[C@H](CO[C@@H]2O[C@H](CO)[C@@H](O)[C@H](O)[C@H]2O)[C@@H](O)[C@H](O)[C@H]1O)=C\C=C\C=C(C)\C=C\C=C(/C)C(=O)O[C@@H]1O[C@H](CO[C@@H]2O[C@H](CO)[C@@H](O)[C@H](O)[C@H]2O)[C@@H](O)[C@H](O)[C@H]1O` [Crocin, crocin], for which, in assay [3], the Ka2 was 0.003559±9.4×10^−5 1/s and the Kd2 is listed as 0.005325±1.5×10^−4 1/s. Besides, the equilibrium dissociation constant (Kd) in assay [3] (setting [8]) was found to be 475 µM. In assay [3] (two-state model), this compound returned a Ka1 of 601700 ± 6700 M⁻¹ s⁻¹ and a Kd1 of 472 ± 5.2 s⁻¹. Further, the Kd in assay [3] (setting [10]) was 470 µM. The “change in fluorescence emission of AChE” value in assay [4] is recorded as “redshift”. For the same compound, in assay [5], the “Turns of AChE” value was found to be 0%, the “α helix of AChE” value is given as 5.7±0.042%, the “Random of AChE” value was found to be 43.8±0.41% and the “β sheets of AChE” value is given as 50.5±0.74%. Further, in assay [6], the Kd turned out to be 6020 µM, the “Molecule 2 ka2” value was 1.010 ± 0.11 M⁻¹ s⁻¹ and the “Molecule 2 kd2” value is on record as 0.006083±1.1×10^−4 1/s. Also, in assay [6] (setting [11]), the “Molecule 1 ka1” value is on record as 3281±5.8×10^2 1/Ms and the “Molecule 1 kd1” value is given as 0.01684±8.5×10^−4 1/s. In assay [7], the IC50 was found to be 920 ± 230 µM.

Turning to `CC1=C(C=O)C(C)(C)CC=C1` [safranal], the “concentration showing maximum inhibition of AChE” value in assay [1] was 21.09 ± 0.17 µM.
